{"source": "paper PMC2680961", "about": "“Homologous desensitization of signalling by the alpha (α) isoform of the human thromboxane A2 receptor: A specific role for nitric oxide signalling” (Biochimica et Biophysica Acta, 2007)", "key": {"TPα^Δ336": {"molecular_target": "T1, TPα^Δ336 (Homo sapiens, UniProt P21731)", "T1 construct": "expressed in transfected cells", "T1 sequence (P21731 1-335)": "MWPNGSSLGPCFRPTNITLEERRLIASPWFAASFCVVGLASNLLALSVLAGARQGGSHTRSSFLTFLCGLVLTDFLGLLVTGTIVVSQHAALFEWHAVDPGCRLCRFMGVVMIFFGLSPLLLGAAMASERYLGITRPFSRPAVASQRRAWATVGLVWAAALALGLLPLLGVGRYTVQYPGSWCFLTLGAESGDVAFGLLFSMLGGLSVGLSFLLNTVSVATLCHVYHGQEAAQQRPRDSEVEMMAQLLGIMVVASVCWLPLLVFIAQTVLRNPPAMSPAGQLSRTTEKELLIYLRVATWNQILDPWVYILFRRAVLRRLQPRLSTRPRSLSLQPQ", "assay": "[3H]SQ29,548 radioligand binding, Scatchard analysis, HEK.TPα^Δ336", "experimental": "(§1) Cells were harvested by centrifugation at 500×g at 4 °C for 5 min and washed three times with ice-cold Ca^2+/Mg^2+-free phosphate-buffered saline (PBS). TP radioligand binding assays were carried out at 30 °C for 30 min in 100 μl reactions in the presence of 0–40 nM [^3H] […] Protein determinations were carried out using the Bradford assay.\n(§2) Radioligand binding and Scatchard analysis data were analysed using GraphPad Prisim V4.0 programme (GraphPad Software Inc., San Diego CA, USA). Statistical analyses were carried out using the unpaired Student's t test using the Statworks Analysis Package. p-values ≤ 0.01 indicated statistically significant differences."}, "TPα^S331,T337A": {"molecular_target": "T2, TPα^S331,T337A (Homo sapiens, UniProt P21731, S331A/T337A)", "T2 construct": "expressed in transfected cells", "T2 sequence (P21731 1-343 S331A/T337A)": "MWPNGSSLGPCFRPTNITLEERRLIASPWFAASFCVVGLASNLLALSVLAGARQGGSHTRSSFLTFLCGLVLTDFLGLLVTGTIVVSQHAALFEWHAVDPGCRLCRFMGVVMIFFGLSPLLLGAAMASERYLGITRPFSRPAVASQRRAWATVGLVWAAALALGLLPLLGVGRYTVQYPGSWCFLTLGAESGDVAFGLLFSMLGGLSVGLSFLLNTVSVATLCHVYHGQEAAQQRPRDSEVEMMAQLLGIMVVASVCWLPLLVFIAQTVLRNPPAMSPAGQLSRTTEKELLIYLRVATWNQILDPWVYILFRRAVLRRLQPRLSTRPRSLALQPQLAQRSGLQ", "assay": "[3H]SQ29,548 radioligand binding, Scatchard analysis, HEK.TPα^S331,T337A", "experimental": "as §1, §2"}, "TPα^S331A": {"molecular_target": "T3, TPα^S331A (Homo sapiens, UniProt P21731, S331A)", "T3 construct": "expressed in transfected cells", "T3 sequence (P21731 1-343 S331A)": "T2 sequence (P21731 1-343 S331A/T337A) with A337T", "assay": "Intracellular calcium mobilization, HEK.TPα^S331A cells", "type": "cell-based", "conditions": "for Δ[Ca2+]i, U46619-induced: HEK.TPα^S331A", "experimental": "Measurement of intracellular calcium mobilization ([Ca^2+]i) in FURA2/AM preloaded HEK 293 cell lines (2 × 10^6 cells/dish), each transiently co-transfected with pADVA (10 μg), and pCMV:Gαq (25 μg), was carried out as previously described. To investigate the effect of GRK2/βARK1 on TP-mediated [Ca^2+]i mobilization, HEK.TPα or HEK.TPβ cells (2 × 10^6 cells/dish) were co-transfected with pADVA (10 μg), pCMV:Gαq (25 μg) along with pRK5:βARK1^495–689 (25 μg), encoding a dominant negative form of GRK2/βARK1[39]. Approximately 48 h post-transfection, cells were harvested by scraping, washed twice in ice-cold PBS and resuspended in HBSSHB (modified Ca^2+/Mg^2+-free Hank's buffered salt solution, containing […], pH 7.67, 0.1% bovine serum albumin (BSA)) buffer at 10^7 cells/ml and incubated in the dark with 5 μM FURA2/AM for 45 min at 37 °C. […] For each measurement of [Ca^2+]i mobilization, aliquots of cells were diluted to 0.825 × 10^6 cells/ml in HBSSHB, 1 mM CaCl2 and FURA2 fluorescence was recorded (2 ml aliquots of cells) at 37^ °C with gentle stirring with a Perkin Elmer-Cetus LS50-B spectrofluorometer at excitation wavelengths of 340 nm and 380 nm and emission wavelength of 510 nm, respectively.\nCells were stimulated with the TP agonist U46619 (1 μM) and changes in [Ca^2+]i mobilization were monitored as a function of time. To assess agonist-mediated homologous desensitization, cells (0.825 × 10^6 cells/ml; 2 ml per assay) were stimulated with 1 μM U46619 (Primary stimulation) or, as a control, with the vehicle for 4 min; thereafter, cells were collected by centrifugation (900×g, 5 min); were washed twice in 2 ml HBSSHB, 1 mM CaCl2; and finally resuspended in 2 ml HBSSHB,1 mM CaCl2 and were left to recover over various time intervals (ranging from 0 to 60 min); thereafter, cells re-stimulated with 1 μM U46619 (Secondary stimulation) and changes in [Ca^2+]i mobilization were monitored as a function of time. […]"}}, "note": "Where a chain is given by its changes, count along the chain named."}
{"molecule": "O=C(O)CCC/C=C\\C[C@@H]1[C@H](CNNC(=O)Nc2ccccc2)[C@H]2CC[C@@H]1O2", "note": "[SQ29,548]", "values": [{"measurement": "Bmax (pmol/mg protein ± S.E.M.)", "setting": "TPα^Δ336", "result": "4.43 ± 0.04", "unit": "pmol/mg protein"}, {"measurement": "Bmax (pmol/mg protein ± S.E.M.)", "setting": "TPα^S331,T337A", "result": "3.23 ± 0.03", "unit": "pmol/mg protein"}]}
{"molecule": "CCCCC[C@H](O)/C=C/[C@@H]1[C@@H](C/C=C\\CCCC(=O)O)[C@H]2CO[C@@H]1C2", "note": "[U46619]", "values": [{"measurement": "Δ[Ca2+]i, U46619-induced", "setting": "TPα^S331A; primary 1 μM U46619 4 min", "result": "207 ± 9.1", "unit": "nM"}, {"measurement": "Δ[Ca2+]i, U46619-induced", "setting": "TPα^S331A; secondary 1 μM U46619 at 15 min", "result": "80 ± 6.8", "unit": "nM"}, {"measurement": "secondary U46619 [Ca2+]i response relative to primary response", "setting": "TPα^S331A; TPα^S331A", "result": 39, "unit": "%"}]}
